What was measured:
[1] = tested on: HL-60; assay: HL-60 differentiation potency; format: cell-based; settings: Homo sapiens
[2] = in vitro; settings: human

| SMILES | EC50 [1] [µM] | IC50 [2] [µM] | IC50 ([2]; HL-60 cells) [µM] |
| --- | --- | --- | --- |
| C[C@H]1[C@@H](Oc2ccc(C(=O)N(C)[C@H]3CC[C@@H](C(=O)O)C3)cc2)O[C@@H]2O[C@@]3(C)CC[C@H]4[C@H](C)CC[C@@H]1[C@@]24OO3 [Compound 272, (1R,3S)-3-(N-methyl-4-(((3R,5aS,6R,8aS, 9R,10S,12R, 12aR)-3,6,9-trimethyldeca-hydro-12H-3,12-epoxy[1,2]dioxepino[4,3-i]isochromen-10-yl)oxy)benzamido) cyclopentane-1-carboxylic acid] | 0.105 | 9.27 | – |
| C[C@H]1[C@@H](O[C@H]2C[C@@H](C(=O)N[C@H]3CC[C@@H](C(=O)O)C3)C2)O[C@@H]2O[C@@]3(C)CC[C@H]4[C@H](C)CC[C@@H]1[C@@]24OO3 [Compound 201, (1R,3S)-3-((1R,3R)-3-(((3R,5aS,6R,8aS, 9R,10S,12R, 12aR)-3,6,9-trimethyldeca-hydro-12H-3,12-epoxy[1,2]dioxepino[4,3-i]isochromen-10-yl)oxy)cyclo-butane-1-carboxamido) cyclopentane-1-carboxylic acid] | 6.73 | – | > 20 |
| C[C@H]1[C@@H](OCc2ccc(C(=O)O)c(OC(F)(F)F)c2)O[C@@H]2O[C@@]3(C)CC[C@H]4[C@H](C)CC[C@@H]1[C@@]24OO3 [Compound 298, 2-(trifluoro-methoxy)-4-((((3R,5aS,6R,8aS, 9R,10S,12R, 12aR)-3,6,9-trimethyldeca-hydro-12H-3,12-epoxy[1,2]dioxepino[4,3-i]isochromen-10-yl)oxy)methyl) benzoic acid] | 0.0531 | > 20 | – |
| C[C@H]1[C@@H](Oc2ccc(C(=O)N[C@H]3CCC[C@H]3C(=O)O)cc2)O[C@@H]2O[C@@]3(C)CC[C@H]4[C@H](C)CC[C@@H]1[C@@]24OO3 [Compound 187, (1R,2S)-2-(4-(((3R,5aS,6R,8aS, 9R,10S,12R, 12aR)-3,6,9-trimethyldeca-hydro-12H-3,12-epoxy[1,2]dioxepino[4,3-i]isochromen-10-yl)oxy)benzamido) cyclopentane-1-carboxylic acid] | 0.0333 | 2.4 | – |
| C[C@H]1[C@@H](Oc2ccccc2OCC(=O)O)O[C@@H]2O[C@@]3(C)CC[C@H]4[C@H](C)CC[C@@H]1[C@@]24OO3 [Compound 230, 2-(2-(((3R,5aS,6R,8aS, 9R,10S,12R, 12aR)-3,6,9-trimethyldeca-hydro-12H-3,12-epoxy[1,2]dioxepino[4,3-i]isochromen-10-yl)oxy)phenoxy) acetic acid] | 2.87 | > 20 | – |
| C[C@H]1[C@@H](Oc2ccc(C3CC3C(=O)O)cc2)O[C@@H]2O[C@@]3(C)CC[C@H]4[C@H](C)CC[C@@H]1[C@@]24OO3 (stereo partly drawn) [Compound 192, 2-(4-(((3R,5aS,6R,8aS, 9R,10S,12R, 12aR)-3,6,9-trimethyldeca-hydro-12H-3,12-epoxy[1,2]dioxepino[4,3-i]isochromen-10-yl)oxy)phenyl) cyclopropane-1-carboxylic acid] | 0.0672 | 3.5 | – |
| C[C@H]1[C@@H](OC[C@@]2(F)CCC(C(=O)O)C2)O[C@@H]2O[C@@]3(C)CC[C@H]4[C@H](C)CC[C@@H]1[C@@]24OO3 (stereo partly drawn) [Compound 210, (3R)-3-fluoro-3-((((3R,5aS,6R,8aS, 9R,10S,12R, 12aR)-3,6,9-trimethyldeca-hydro-12H-3,12-epoxy[1,2]dioxepino[4,3-i]isochromen-10-yl)oxy)methyl) cyclopentane-1-carboxylic acid] | 2.5 | 7.58 | – |
| C[C@H]1[C@@H](Oc2ccc(CC(=O)N[C@@H]3CC[C@H](C(=O)O)C3)cc2)O[C@@H]2O[C@@]3(C)CC[C@H]4[C@H](C)CC[C@@H]1[C@@]24OO3 [Compound 289, (1S,3R)-3-(2-(4-(((3R,5aS,6R,8aS, 9R,10S,12R, 12aR)-3,6,9-trimethyldeca-hydro-12H-3,12-epoxy[1,2]dioxepino[4,3-i]isochromen-10-yl)oxy)phenyl)acetamido) cyclopentane-1-carboxylic acid] | 0.0276 | > 20 | – |
| C[C@H]1[C@@H](Oc2ccc([C@H](C)C(=O)O)cc2F)O[C@@H]2O[C@@]3(C)CC[C@H]4[C@H](C)CC[C@@H]1[C@@]24OO3 [Compound 282, (S)-2-(3-fluoro-4-(((3R,5aS,6R,8aS, 9R,10S,12R, 12aR)-3,6,9-trimethyldeca-hydro-12H-3,12-epoxy[1,2]dioxepino[4,3-i]isochromen-10-yl)oxy)phenyl) propanoic acid] | 0.0127 | 4.82 | – |

More lines, in order of falling EC50 [1], values ahead:

| EC50 [1] [µM] | IC50 [2] [µM] | SMILES | IC50 ([2]; HL-60 cells) [µM] |
| --- | --- | --- | --- |
| 11.4 | > 20 | C[C@H]1[C@@H](OCC2(O)CCC(C(=O)O)CC2)O[C@@H]2O[C@@]3(C)CC[C@H]4[C@H](C)CC[C@@H]1[C@@]24OO3 (stereo partly drawn) [Compound 211, 4-hydroxy-4-((((3R,5aS,6R,8aS, 9R,10S,12R, 12aR)-3,6,9-trimethyldeca-hydro-12H-3,12-epoxy[1,2]dioxepino[4,3-i]isochromen-10-yl)oxy)methyl) cyclohexane-1-carboxylic acid] | – |
| 6.45 | 17.2 | C[C@H]1[C@@H](Oc2ccc(C(=O)NC3(C(=O)O)COC3)cc2Cl)O[C@@H]2O[C@@]3(C)CC[C@H]4[C@H](C)CC[C@@H]1[C@@]24OO3 [Compound 265, 3-(3-chloro-4-(((3R,5aS,6R,8aS, 9R,10S,12R, 12aR)-3,6,9-trimethyldeca-hydro-12H-3,12-epoxy[1,2]dioxepino[4,3-i]isochromen-10-yl)oxy)benzamido) oxetane-3-carboxylic acid] | – |
| 3.83 | > 20 | C[C@H]1[C@@H](OC(C)(C)[C@H]2C[C@@H](C(=O)O)C2)O[C@@H]2O[C@@]3(C)CC[C@H]4[C@H](C)CC[C@@H]1[C@@]24OO3 [Compound 206, (1R,3s)-3-(2-(((3R,5aS,6R,8aS, 9R,10S,12R, 12aR)-3,6,9-trimethyldeca-hydro-12H-3,12-epoxy[1,2]dioxepino[4,3-i]isochromen-10-yl)oxy)propan-2-yl)cyclobutane-1-carboxylic acid] | – |
| 3.07 | 15.3 | C[C@H]1[C@@H](OC[C@H]2CC[C@@H](C(=O)N[C@@H](CC(F)(F)F)C(=O)O)CC2)O[C@@H]2O[C@@]3(C)CC[C@H]4[C@H](C)CC[C@@H]1[C@@]24OO3 [Compound 256, (S)-4,4,4-trifluro-2-((1R,4R)-4-((((3R,5aS,6R,8aS, 9R,10S,12R, 12aR)-3,6,9-trimethyldeca-hydro-12H-3,12-epoxy[1,2]dioxepino[4,3-i]isochromen-10-yl)oxy)methyl)cyclohexane-1-carboxamido) butanoic acid] | – |
| 1.34 | > 20 | C[C@H]1[C@@H](Oc2ccc(Cn3cc(C(=O)O)nn3)cc2)O[C@@H]2O[C@@]3(C)CC[C@H]4[C@H](C)CC[C@@H]1[C@@]24OO3 [Compound 245, 1-(4-(((3R,5aS,6R,8aS, 9R,10S,12R, 12aR)-3,6,9-trimethyldeca-hydro-12H-3,12-epoxy[1,2]dioxepino[4,3-i]isochromen-10-yl)oxy)benzyl)-1H-1,2,3-triazole-4-carboxylic acid] | – |
| 0.214 | 18.8 | C[C@H]1[C@@H](OC[C@H]2CC[C@@H](C(=O)N[C@H]3C[C@@H](C(=O)O)C3)CC2)O[C@@H]2O[C@@]3(C)CC[C@H]4[C@H](C)CC[C@@H]1[C@@]24OO3 [Compound 241, (1S,3s)-3-((1R,4S)-4-((((3R,5aS,6R,8aS, 9R,10S,12R, 12aR)-3,6,9-trimethyldeca-hydro-12H-3,12-epoxy[1,2]dioxepino[4,3-i]isochromen-10-yl)oxy)methyl)cyclohexane-1-carboxamido) cyclobutane-1-carboxylic acid] | – |
| 0.112 | 0.43 | C[C@H]1[C@@H](OCc2ccc(C(=O)N[C@H](C(=O)O)C(C)(C)C)cc2)O[C@@H]2O[C@@]3(C)CC[C@H]4[C@H](C)CC[C@@H]1[C@@]24OO3 [Compound 281, (S)-3,3-dimethyl-2-(4-((((3R,5aS,6R,8aS, 9R,10S,12R, 12aR)-3,6,9-trimethyldeca-hydro-12H-3,12-epoxy[1,2]dioxepino[4,3-i]isochromen-10-yl)oxy)methyl)benzamido) butanoic acid] | – |
| 0.0635 | > 20 | C[C@H]1[C@@H](Oc2ccc(CC(=O)N[C@H](C(=O)O)C3CC3)cc2)O[C@@H]2O[C@@]3(C)CC[C@H]4[C@H](C)CC[C@@H]1[C@@]24OO3 [Compound 301, (S)-2-cyclopropyl-2-(2-(4-(((3R,5aS,6R,8aS, 9R,10S,12R, 12aR)-3,6,9-trimethyldeca-hydro-12H-3,12-epoxy[1,2]dioxepino[4,3-i]isochromen-10-yl)oxy)phenyl)acetamido) acetic acid] | – |
| 0.0531 | 3 | C[C@H]1[C@H](OCc2c(Cl)cc(C(=O)O)cc2S(C)(=O)=O)O[C@@H]2O[C@@]3(C)CC[C@H]4[C@H](C)CC[C@@H]1[C@@]24OO3 [Compound 217, 3-chloro-5-(methylsulfonyl)-4-((((3R,5aS,6R,8aS, 9R,10R,12R, 12aR)-3,6,9-trimethyldeca-hydro-12H-3,12-epoxy[1,2]dioxepino[4,3-i]isochromen-10-yl)oxy)methyl) benzoic acid] | – |
| 0.0299 | 0.62 | C[C@H]1[C@@H](Oc2ccc(C(=O)N[C@H]3CC[C@@H](C(=O)O)C3)cc2Cl)O[C@@H]2O[C@@]3(C)CC[C@H]4[C@H](C)CC[C@@H]1[C@@]24OO3 [Compound 232, (1R,3S)-3-(3-chloro-4-(((3R,5aS,6R,8aS, 9R,10S,12R, 12aR)-3,6,9-trimethyldeca-hydro-12H-3,12-epoxy[1,2]dioxepino[4,3-i]isochromen-10-yl)oxy)benzamido)cyclo-pentane-1-carboxylic acid] | – |
| 0.0158 | 0.04 | C[C@H]1[C@@H](Oc2ccc(C(=O)Nc3ccc(C(=O)O)cc3)cc2)O[C@@H]2O[C@@]3(C)CC[C@H]4[C@H](C)CC[C@@H]1[C@@]24OO3 [Compound 246, 4-(4-(((3R,5aS,6R,8aS, 9R,10S,12R, 12aR)-3,6,9-trimethyldeca-hydro-12H-3,12-epoxy[1,2]dioxepino[4,3-i]isochromen-10-yl)oxy)benzamido) benzoic acid] | – |
| 0.0103 | 0.06 | CC(C)C(C(=O)O)c1ccc(O[C@H]2O[C@@H]3O[C@@]4(C)CC[C@H]5[C@H](C)CC[C@@H]([C@H]2C)[C@@]35OO4)c(F)c1 (stereo partly drawn) [Compound 266, 2-(3-fluoro-4-(((3R,5aS,6R,8aS, 9R,10S,12R, 12aR)-3,6,9-trimethyldeca-hydro-12H-3,12-epoxy[1,2]dioxepino[4,3-i]isochromen-10-yl)oxy)phenyl)-3-methylbutanoic acid] | – |

— patent US20260242391A1 (priority 2023, published 2026)
